Test results reported in patent US11679111B2, “Fatty acid synthase inhibitors” (priority 2016, dated 2023).
Read-outs that look alike come from different tables or passages of the source.

How the values were obtained:
HIV-1 = assay: HIV/TZM-bl assay, extracellular p24 ELISA; assay type: cell-based
Protocol: HS-106 or C75 were dissolved in DMSO to achieve 10 mM stock concentration. The stock solution of each drug was serially diluted 3-fold with DMSO and 2 μL of each dilution was added to each well to achieve final concentration range from 10 μM to 4.6 nM fixing final [DMSO] at 1%. HIVNL4.3 was added to 3×10^4 TZM-bl cells at 10 ng/ml p24 equivalents in the presence of 15 μg/mL DEAE dextran. HIV-infected cells were incubated at 37° C. in 5% CO2 for 24 hours, washed with PBS, fresh media was added, and cell were incubated for another 24 hours. Supernatants were collected and stored at −80° C. until P24 ELISA assay. HIV-1 replication was assessed by quantitative p24 ELISA. Nevirapine (positive control) was obtained from the AIDS Reagent Repository and was used at […].

HepG2 cells = assay: HepG2 cell viability (Resazurin); assay type: cell-based
Protocol: HepG2 cells were seeded in 96 well plates and after reaching 80% confluency, the cells were treated with different concentrations of HS-106 for 4 hours. At the end of the treatment time, 10 μl of 700 μM Resazurin (prepared with PBS) were added to each well. After 3 hours, the Resorufin fluorescence was measured at Ex/Em: 540/590 nm.

human FASN = biological target: T1, human FASN (Homo sapiens, UniProt P49327); assay: FASN activity assay, 2-[14C] malonyl CoA incorporation into lipids by purified enzyme; assay type: biochemical
T1 construct: endogenous in cells; host or cells: BT474 cells; endogenous enzyme purified by ammonium sulfate cuts and Sephacryl S-300 gel filtration, about 85% pure
Protocol: Human FASN activity was measured by monitoring the incorporation of 2-[^14C] malonyl CoA into fatty acids using liquid scintillation counting by a method similar to the one described by Richardson et al (Richardson and Smith, 2007). FASN (10 μg/ml of PBS containing 1 mM DTT and 1 mM EDTA) was pre-incubated with different concentrations of HS-106 (final DMSO concentration 1%) at 37° C. for 30 minutes, then substrates were added (20 μM acetyl CoA and 200 μM NADPH) in a total reaction volume of 100 μl. The reaction was initiated by adding 10 μl of 50 μM malonyl CoA spiked with 0.05 μCi of 2-[^14C] malonyl CoA. After incubation for 30 minutes at 37° C., lipids were extracted 3 times with 150 μl (2:1, v/v) chloroform:methanol. Then, to the pooled organic phases, 1 ml of toluene containing 25 g/L Butyl-PBD was added and radioactivity was measured by liquid scintillation counting.
Confluent BT474 cells grown in high glucose DMEM with 10% FBS, were scraped and washed two times with ice cold PBS. […]
Human FASN activity was measured by monitoring the incorporation of 2-[^14C] […] Then, to the pooled organic phase, 1 ml of Toluene containing […] Butyl PBD was added and radioactivity was measured by scintillation counting. […]

SKBR3 cells = assay: Caspase 3/7 activity assay; assay type: cell-based; settings: SKBR3, 24 hours
Protocol: (§1) The assay was performed using a similar protocol to the one described by Fritz et al (Fritz et al., 2001). Cells were seeded at a density of 10,000 cells/well and treated with different concentrations of HS-106 or C75. After 24 hours, to each well, 50 μl of Caspase assay/lysis buffer (50 mM HEPES pH 7.5, 100 mM KCl, 5 mM EDTA, 10 mM MgC12, 10 mM CHAPS, 20% Sucrose, 10 mM DTT, 10 μM of (Z-DEVD)2-Rh110 (Santa Cruz Biotech) and complete protease inhibitor (Roche))was added. After 6 hours of incubation at 37° C., fluorescence was measured at Ex/Em: 485/535 nm.

BT474 cells = assay: Caspase 3/7 activity assay; assay type: cell-based; settings: BT474, 24 hours
Protocol: as §1

TZM-bl cells = assay: Cellular toxicity / viability in the TZM-bl model
Description: (§2) The data presented are mean values (±SD) from three independent experiments. ** Indicates p<0.0001, treatment versus DMSO-treated control (Students t-test).

[1] = Cellular toxicity / viability in the TZM-bl model; settings: human, TZM-bl cells
Description: as §2

T1 sequence (P49327 whole entry): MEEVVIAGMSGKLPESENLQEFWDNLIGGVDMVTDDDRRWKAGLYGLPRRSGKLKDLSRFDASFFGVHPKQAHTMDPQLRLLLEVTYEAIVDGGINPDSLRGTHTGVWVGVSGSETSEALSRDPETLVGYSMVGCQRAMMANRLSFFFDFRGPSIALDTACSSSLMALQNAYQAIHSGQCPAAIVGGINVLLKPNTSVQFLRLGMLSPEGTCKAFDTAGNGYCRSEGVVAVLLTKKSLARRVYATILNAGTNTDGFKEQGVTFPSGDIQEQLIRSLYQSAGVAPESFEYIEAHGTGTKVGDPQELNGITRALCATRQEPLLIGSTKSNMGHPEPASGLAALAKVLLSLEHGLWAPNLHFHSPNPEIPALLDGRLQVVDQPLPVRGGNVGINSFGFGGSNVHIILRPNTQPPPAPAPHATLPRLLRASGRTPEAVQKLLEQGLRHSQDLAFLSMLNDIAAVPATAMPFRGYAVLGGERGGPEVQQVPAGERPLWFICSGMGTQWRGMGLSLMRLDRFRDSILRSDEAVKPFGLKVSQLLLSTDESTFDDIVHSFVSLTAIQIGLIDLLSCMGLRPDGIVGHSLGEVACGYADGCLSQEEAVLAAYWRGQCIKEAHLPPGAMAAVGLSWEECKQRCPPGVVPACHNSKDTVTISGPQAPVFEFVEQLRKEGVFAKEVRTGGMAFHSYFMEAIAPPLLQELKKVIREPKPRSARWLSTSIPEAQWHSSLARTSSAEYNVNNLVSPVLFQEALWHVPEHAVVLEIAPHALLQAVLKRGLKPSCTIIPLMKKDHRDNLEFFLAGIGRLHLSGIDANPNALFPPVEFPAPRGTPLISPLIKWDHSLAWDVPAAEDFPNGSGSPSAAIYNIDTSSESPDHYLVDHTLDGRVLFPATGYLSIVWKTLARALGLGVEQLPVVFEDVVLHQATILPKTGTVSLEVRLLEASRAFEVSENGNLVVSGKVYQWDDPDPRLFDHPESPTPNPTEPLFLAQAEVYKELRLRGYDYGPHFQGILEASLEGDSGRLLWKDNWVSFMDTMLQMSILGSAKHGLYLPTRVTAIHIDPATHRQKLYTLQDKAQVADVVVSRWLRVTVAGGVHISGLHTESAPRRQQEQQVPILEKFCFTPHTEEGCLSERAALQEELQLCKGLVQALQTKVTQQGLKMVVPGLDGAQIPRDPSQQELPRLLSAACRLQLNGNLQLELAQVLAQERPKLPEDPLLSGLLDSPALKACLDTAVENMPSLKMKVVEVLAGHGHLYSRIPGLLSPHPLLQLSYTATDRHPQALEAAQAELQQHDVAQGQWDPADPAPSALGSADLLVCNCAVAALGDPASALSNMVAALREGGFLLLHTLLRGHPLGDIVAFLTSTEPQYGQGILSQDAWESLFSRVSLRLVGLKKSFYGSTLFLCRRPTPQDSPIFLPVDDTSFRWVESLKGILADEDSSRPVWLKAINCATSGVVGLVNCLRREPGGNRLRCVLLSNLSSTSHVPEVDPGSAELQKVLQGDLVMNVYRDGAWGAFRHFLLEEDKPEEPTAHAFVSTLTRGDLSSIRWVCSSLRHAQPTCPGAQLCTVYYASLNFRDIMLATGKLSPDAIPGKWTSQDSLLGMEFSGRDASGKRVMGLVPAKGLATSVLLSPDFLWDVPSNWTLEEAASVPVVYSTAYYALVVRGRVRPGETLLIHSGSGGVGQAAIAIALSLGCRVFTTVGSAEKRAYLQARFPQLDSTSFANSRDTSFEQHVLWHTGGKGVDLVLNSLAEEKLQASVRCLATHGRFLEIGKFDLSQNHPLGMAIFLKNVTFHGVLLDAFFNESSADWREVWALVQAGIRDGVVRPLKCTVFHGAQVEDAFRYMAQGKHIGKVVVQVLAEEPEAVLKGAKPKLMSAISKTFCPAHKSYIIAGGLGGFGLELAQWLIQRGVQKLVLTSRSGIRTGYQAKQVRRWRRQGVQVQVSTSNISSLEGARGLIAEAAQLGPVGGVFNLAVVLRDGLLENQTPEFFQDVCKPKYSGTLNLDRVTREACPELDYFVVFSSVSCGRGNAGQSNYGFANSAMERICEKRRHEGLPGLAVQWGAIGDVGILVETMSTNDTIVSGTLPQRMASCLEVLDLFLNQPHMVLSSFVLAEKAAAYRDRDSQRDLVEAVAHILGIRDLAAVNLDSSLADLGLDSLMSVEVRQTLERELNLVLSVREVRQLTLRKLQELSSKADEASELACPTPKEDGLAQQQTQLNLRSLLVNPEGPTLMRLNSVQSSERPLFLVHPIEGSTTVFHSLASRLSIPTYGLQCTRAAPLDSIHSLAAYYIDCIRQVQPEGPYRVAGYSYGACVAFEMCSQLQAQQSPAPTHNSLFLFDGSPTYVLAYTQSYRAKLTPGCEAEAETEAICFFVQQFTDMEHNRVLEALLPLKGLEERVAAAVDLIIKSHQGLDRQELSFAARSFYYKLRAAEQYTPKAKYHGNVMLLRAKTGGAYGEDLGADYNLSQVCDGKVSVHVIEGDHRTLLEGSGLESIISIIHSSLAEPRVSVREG

**Q.** With `Cc1sc2ncnc(NC3CCN(Cc4ccccc4)C3)c2c1C` (racemic) [HS-106, N-(1-benzylpyrrolidin-3-yI)-5,6-dimethylthieno[2,3-d]pyrimidin-4-amine] as the molecule, how does the EC50 (HIV-1; Human immunodeficiency virus 1, TZM-bl cells, 48 hours post infection, read-out: EC50, HIV-1 p24 production) read?
**A.** 213 nM

**Q.** And the “antiviral index (TC50/EC50)” value (HIV-1; TZM-bl model)?
**A.** 47

**Q.** And the HepG2 cell viability (HepG2 cells)?
**A.** without affecting the cell viability

**Q.** What about the IC50 (human FASN) of the same molecule?
**A.** 3710 nM

**Q.** And the IC50 (human FASN; FIG. 2E, read-out: IC50, native human FASN (purified))?
**A.** 46 nM

**Q.** And the “caspase activity relative to MCF10A cells” value (SKBR3 cells)?
**A.** 2 fold

**Q.** What about the “caspase activity relative to MCF10A cells” value (BT474 cells) of the same molecule?
**A.** 10 fold

**Q.** And the “TZM-bl cell viability (MTT-activity)” value (TZM-bl cells)?
**A.** without significant effects on TZM-bl cell viability

**Q.** What about the CC50 [1] of the same molecule?
**A.** 10 µM
